# According to patent publication US8455518B2, “Method of treating skin with microRNA modulators” (Avon Products, Inc., priority 2010, dated 2013):
# How the values were obtained:
# Assay type in all cases: cell-based
# [1] = tested on: miR-29b; assay: Inhibition of miR-29b by specific compounds in human dermal fibroblasts, qRT-PCR; conditions: 0.0005% compound, 48 hours; for inhibition of miR-29b relative to vehicle treated cells (in words): p<0.05; for miR-29b (%): serum-free, relative to vehicle treated cells
# Description: (§1) The expression of miR-29a and miR29b in young versus old skin fibroblasts was examined by qRT-PCR.
# (§2) Human dermal fibroblasts were grown in the absence of serum overnight, followed by treatment with 0.0005% of test compounds in the absence of serum for 48 hours. Cells were analyzed for expression levels of miR-29a and miR-29b by qRT-PCR as described in Examples 1 and 2. […] All values are statistically significant at p<0.05.
# [2] = tested on: miR-29a; assay: Inhibition of miR-29a by specific compounds in human dermal fibroblasts, qRT-PCR; conditions: 0.0005% compound, 48 hours; for inhibition of miR-29a relative to vehicle treated cells (in words): p<0.05; for miR-29a (%): serum-free, relative to vehicle treated cells
# Description: as §1, §2
# [3] = tested on: collagen; assay: Collagen protein levels by ELISA in compound-treated human dermal fibroblasts; conditions: 0.0005% compound, 48 hours; for collagen protein levels as measured by ELISA (in words): p<0.05; for Collagen (%): serum-free, collagen protein by ELISA
structure (smiles),measurement,setting,value
"CC(C)CN(Cc1ccc(OS(C)(=O)=O)cc1)S(=O)(=O)c1ccccc1 [Compound 1, N-(2-methylpropyl)-N-[[4-[(methylsulfonyl)oxy]phenyl]methyl]-benzenesulfonamide]",inhibition of miR-29b relative to vehicle treated cells (in words),[1],significant inhibition
same,miR-29b (%),[1],−85.00%
same,inhibition of miR-29a relative to vehicle treated cells (in words),[2],significant inhibition
same,miR-29a (%),[2],−61.57%
same,collagen protein levels as measured by ELISA (in words),[3],increased collagen protein levels
same,Collagen (%),[3],102%
"CCOCCCNC(=O)c1cc(NC(=O)/C=C/c2ccccc2)ccc1N1CCC(Cc2ccccc2)CC1 [Compound 2, 2-(4-benzylpiperidin-1-yl)-N-(3-ethoxypropyl)-5-[(2E)-3-phenylprop-2-enamido]-benzamide]",inhibition of miR-29b relative to vehicle treated cells (in words),[1],significant inhibition
same,miR-29b (%),[1],−61.53%
same,inhibition of miR-29a relative to vehicle treated cells (in words),[2],significant inhibition
same,miR-29a (%),[2],−33.67%
same,collagen protein levels as measured by ELISA (in words),[3],increased collagen protein levels
same,Collagen (%),[3],30%
